Measurements: ChEMBL document CHEMBL1130389, “Synthesis and ligand binding studies of 4'-iodobenzoyl esters of tropanes and piperidines at the dopamine transporter” (J Med Chem, 1997)

molecular target: Sodium-dependent dopamine transporter (Rattus norvegicus, UniProt P23977); assay: Compound was tested for inhibitory activity to displace [3H]WIN-35428 at dopamine transporter in Rat Striatal Membranes.
Sequence (P23977 whole entry): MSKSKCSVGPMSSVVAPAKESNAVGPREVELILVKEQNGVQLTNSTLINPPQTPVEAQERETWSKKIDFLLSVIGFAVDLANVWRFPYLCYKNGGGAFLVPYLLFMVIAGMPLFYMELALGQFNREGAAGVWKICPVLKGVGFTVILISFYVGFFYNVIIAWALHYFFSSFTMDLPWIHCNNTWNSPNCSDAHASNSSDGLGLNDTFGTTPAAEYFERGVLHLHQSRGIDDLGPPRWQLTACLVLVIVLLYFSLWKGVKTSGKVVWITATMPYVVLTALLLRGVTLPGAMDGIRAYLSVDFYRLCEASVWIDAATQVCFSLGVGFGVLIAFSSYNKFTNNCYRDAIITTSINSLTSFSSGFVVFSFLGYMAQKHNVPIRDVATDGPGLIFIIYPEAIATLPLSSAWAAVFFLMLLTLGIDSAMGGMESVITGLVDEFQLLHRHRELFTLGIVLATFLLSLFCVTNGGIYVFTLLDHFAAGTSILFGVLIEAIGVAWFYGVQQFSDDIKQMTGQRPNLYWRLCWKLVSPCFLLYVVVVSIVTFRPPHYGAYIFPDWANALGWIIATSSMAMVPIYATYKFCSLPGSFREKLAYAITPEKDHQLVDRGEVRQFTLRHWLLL

Question: How did the IC50 turn out when `COC(=O)[C@H]1[C@@H](OC(=O)c2ccc(I)cc2O)C[C@H]2CC[C@H]1N2C` was run?
Answer: 215 nM

Question: With `COC(=O)[C@H]1[C@@H](OC(=O)c2ccccc2O)C[C@H]2CC[C@H]1N2C` as the compound, how does the IC50 read?
Answer: 25.2 nM

Question: Which IC50 does the source give for `COC(=O)[C@H]1[C@@H](OC(=O)c2ccccc2OC(C)=O)CC2CC[C@H]1N2C` here?
Answer: 69.5 nM

Question: For `COC(=O)[C@@H]1C2CC[C@H](C[C@@H]1OC(=O)c1ccc(O)cc1)N2C`, which IC50 is on record?
Answer: 153 nM

Question: With `COC(=O)[C@@H]1C2CC[C@H](C[C@@H]1OC(=O)c1cccc(O)c1)N2C` as the compound, how does the IC50 read?
Answer: 1180 nM

Question: Which IC50 does the source give for `COC(=O)C1CN(C)CC[C@@H]1OC(=O)c1ccc(I)cc1` (some centres not stated) here?
Answer: 8060 nM

Question: Which IC50 does the source give for `CN1CCC(OC(=O)c2ccc(I)cc2)CC1` here?
Answer: 11600 nM
